{
  "source": "paper PMC5635695",
  "about": "“More than Enzymes That Make or Break Cyclic Di-GMP—Local Signaling in the Interactome of GGDEF/EAL Domain Proteins of Escherichia coli” (mBio, 2017)",
  "target": "T1, CdgI GGDEF domain (GGDEF^CdgI) (Escherichia coli, UniProt P76236)",
  "T1 construct": "isolated cytoplasmic GGDEF domain (degenerate A-site, intact I-site), N-terminal MASE4 membrane domain removed; N-terminal His6 tag kept; pQE30xa in E. coli Fi8202",
  "T1 sequence (P76236 315-491)": "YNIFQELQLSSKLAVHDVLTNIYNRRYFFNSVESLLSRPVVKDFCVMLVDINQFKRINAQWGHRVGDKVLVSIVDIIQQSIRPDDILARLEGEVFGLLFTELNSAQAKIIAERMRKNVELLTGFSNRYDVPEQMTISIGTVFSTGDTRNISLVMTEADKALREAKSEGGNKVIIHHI",
  "assay": "UV cross-linking with [alpha-32P]c-di-GMP, SDS-PAGE",
  "assay_type": "binding",
  "details": "42 nM radiolabelled c-di-GMP, competition with unlabelled c-di-GMP; labelled compound",
  "data": [
    {"smiles": "Nc1nc2c(ncn2[C@@H]2O[C@@H]3COP(=O)(O)O[C@H]4[C@@H](O)[C@H](n5cnc6c(=O)[nH]c(N)nc65)O[C@@H]4COP(=O)(O)O[C@H]3[C@H]2O)c(=O)[nH]1", "note": "[c-di-GMP]", "values": [
      {"measurement": "UV cross-linking with [alpha-32P]c-di-GMP, SDS-PAGE", "result": "We observed that purified CdgI could indeed bind c-di-GMP"}
    ]}
  ]
}
